Measurements published in patent publication US20130315828A1, “KIT AND METHOD OF USE OF TARGETING PEPTIDE FOR DIAGNOSIS AND THERAPY OF CANCER” (NATIONAL TSING HUA UNIVERSITY, priority 2012, published 2013).

Experiments:
[1] = Fluorophore-assisted carbohydrate electrophoresis (FACE), GBP binding to glycosaminoglycans; conditions: LMWH, CS, DS; PBS, 25° C., 15 min; FIG. 1A
Description: (§1) Fluorophore-assisted carbohydrate electrophoresis (FACE) is carried out by pre-mixing (A) AMAC-labeled LMWH, chondroitin sulfate (CS), and dermatan sulfate (DS) and (B) AMAC-labeled LMWH, de-2-O-sulfated heparin, de-6-O-sulfated heparin, and N-acetyl-de-O-sulfated heparin (0.33 nmol) with indicated fold molar excess of GBP before incubated with or without peptide in PBS at 25° C. for 15 min. The reaction products are separated on a 1% agarose gel. The reacted probe and protein are shown above the gel. Relative intensity (%) of free probe and the unlabeled competitors are shown at the bottom of the gel.
(§2) Carbohydrate were labeled with 2-aminoacridone (AMAC) (Invitrogen, catalog no. A6289) according to previous study (Calabro, A., Benavides, M., Tammi, M., Hascall, V. C., and Midura, R. J. (2000) Microanalysis of enzyme digests of hyaluronan and chondroitin/dermatan sulfate by fluorophore-assisted carbohydrate electrophoresis (FACE), Glycobiology 10, 273-281). Briefly, fifty micrograms GAGs were dried by freeze-drying machine, and then incubated with 40 μl 1.25 M 2-aminoacridone (AMAC)/85% DMSO/15% acetic acid at 25° C. for 15 min. Forty microliters of 1.25 M sodium cyanoborohydride (NaBH3CN) was added and incubated at 37° C. for 16 h. Afterwards, 720 μl 99% ice-cold ethanol was added at −20° C. for 15 min, then centrifugation at 11,000×g at 4° C. for 5 min. […]

[2] = system: neoplastic lung tissues; assay: IHC targeting of GBP in lung cancer tissue arrays, overall; type: binding, human
Description: The 5 μm slides were dried in the oven at 60° C. for 1 h. Briefly, the sections were deparaffinized with xylene (J. T. Baker Phillipsburg, N) for 15 min and rehydrated in graded ethanol solutions. Endogenous peroxidase activity was blocked by incubating the sections in a 3% hydrogen peroxide solution in distilled water for 10 min. The sections were then washed and placed in phosphate buffer for 10 min. Antigen retrieval was achieved by heat treatment using 10 mM citrate buffer solution pH 6.0 or by 0.1% trypsin treatment for 5 min (for 10E4). After the slides were blocked in 3% BSA solution for 1 h and incubated with 2 μM eGFP-GBP fusion protein for 2 h (for eGFP), these sections were then incubated with 10E4 antibody (1:200 dilution) and eGFP antibody (1:200 dilution) at 4° C. overnight, individually. […]
Every tumor was given a score according to the intensity of the nuclear or cytoplasmic staining (no staining=0; weak staining=1; moderate staining=2; strong staining=3) and the extent of stained cells (0-10%=0; 11-50%=1; 51-80%=2; 81-100%=3). The final immunoreactive score was determined by multiplying the intensity and extent of positivity scores of stained cells, with the minimum score of 0 and a maximum score of 9.
Specimen scores from 61 cases of lung cancers from tissue arrays were used for quantitative evaluation of IHC data. […]

[3] = FACE, GBP binding to heparin and desulfated heparins; conditions: LMWH and desulfated heparins; FIG. 1B
Description: as §1, §2

## NYRWRCKNQN [GBP]
[1]
  GBP binding to glycosaminoglycans (FACE): probed universal glycosaminoglycans including low molecular weight heparin, chondroitin sulfate and dermatan sulfate
[2]
  GBP recognition, aggressive versus early stage of cancer: higher recognition toward more aggressive tumor progression
[3]
  GBP recognition of sulfated HS / heparin derivatives (FACE): identified sulfated HS, especially preferring O-sulfated heparin
